# From US8343990B2, “Substituted cyclopropyl compounds, compositions containing such compounds and methods of treatment” (Merck Sharp & Dohme Corp., priority 2008, dated 2013)
# Counter-ions that a name gives are not always drawn.
# Target: T1, GPR119 receptor (UniProt Q8TDV5, S309L, species not given)
# T1 sequence (Q8TDV5 1-335 S309L): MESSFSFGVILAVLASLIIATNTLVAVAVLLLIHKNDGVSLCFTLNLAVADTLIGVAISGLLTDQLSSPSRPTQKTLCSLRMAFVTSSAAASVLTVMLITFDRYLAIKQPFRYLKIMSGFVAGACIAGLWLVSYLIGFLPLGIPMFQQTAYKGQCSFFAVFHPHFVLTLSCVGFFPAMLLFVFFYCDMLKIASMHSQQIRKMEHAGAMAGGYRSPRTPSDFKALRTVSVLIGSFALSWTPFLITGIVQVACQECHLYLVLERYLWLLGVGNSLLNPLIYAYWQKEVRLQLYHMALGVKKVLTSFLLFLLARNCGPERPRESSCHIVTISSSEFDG
# Assay: GPR119 signaling, cyclic AMP (cAMP) homogenous time resolved fluorescence (HTRF) assay
# Format: cell-based
# Settings: CHO cells with Gα15 and murine GPR119, or HEK293 Flp-In cells with human GPR119 S309L; table does not say which; read-out: Activity: inflection points, denoted as EC50 values (agonist activation of GPR119, cAMP)
# Text: Measurement of GPR119 Signaling Using a Cyclic AMP (cAMP) Homogenous Time Resolved Fluorescence (HTRF) Assay
# Chinese hamster ovary (CHO) cell lines stably transfected with the permissive guanine nucleotide binding protein alpha 15 (Gα15) and […] GPR119 were maintained in DMEM media containing FBS, penicillin-streptomycin, puromycin, and G418 (geneticin). Alternatively, human embryonic kidney (HEK)293 Flp-In cells (Invitrogen, Carlsbad, Calif.) were stably transfected with a human SNP variant (S309L) of GPR119 and maintained in DMEM media containing FBS, penicillin-streptomycin, and hygromycin. Agonist activation of the GPR119 receptor was measured in receptor transfected cells described above, treated with compounds of this invention, using a commercial homogenous time resolved fluorescence (HTRF) kit for measurement of cAMP (CisBio, Bedford, Mass.). The assay was performed in 96-well half-volume plates (murine) or 384-well plates (human) following the manufacturers instructions. Briefly, suspended cells were incubated with a dose titration of test compound at room temperature for 60 min, lysed, and incubated with HTRF reagents for an additional 60 min. The plate was read using an Envision multilabel reader (Perkin Elmer) adjusted to read time resolved fluorescence and the cAMP concentrations were extrapolated from a cAMP calibration curve. […] The concentration of test compound required to stimulate a half-maximal response (EC50), and efficacy as compared to an internal agonist control, was determined from a sigmoidal 4-parameter curve fit of the resulting plot of normalized activity versus compound concentration.
row,EC50 [nM],Compound
1,10 to 50,"CS(=O)(=O)c1ccc(OCC[C@H]2C[C@@H]2C2CCN(c3ncc(Cl)cn3)CC2)cc1 [Ex 91, 5-chloro-2-[4-((1R,2R)-2-{2-[4-(methylsulfonyl)phenoxy]ethyl}cyclopropyl)piperidin-1-yl]pyrimidine]"
2,10 to 50,"Cc1nnc(-c2ccc(OC[C@H]3C[C@@H]3CC3CCN(c4ncc(Cl)cn4)CC3)cc2F)o1 [Ex 110, 5-chloro-2-{4-[((1S,2S)-2-{[3-fluoro-4-(5-methyl-1,3,4-oxadiazol-2-yl)phenoxy]methyl}cyclopropyl)methyl]piperidin-1-yl}pyrimidine]"
3,< 10,"O=C(NC1CC1)c1ccc(OC[C@@H]2C[C@H]2CC2CCN(c3ncc(Cl)cn3)CC2)cc1F (racemic) [Ex 106, Rac-trans 4-[(2-{[1-(5-chloropyrimidin-2-yl)piperidin-4-yl]methyl}cyclopropyl)methoxy]-N-cyclopropyl-2-fluorobenzamide]"
4,< 10,"Cc1nnc(-c2ccc(OCC[C@H]3C[C@H]3C3CCN(c4ccc(C(F)(F)F)cn4)CC3)cc2F)o1 (racemic) [Ex 89, Rac-cis-2-[4-(2-{2-[3-fluoro-4-(5-methyl-1,3,4-oxadiazol-2-yl)phenoxy]ethyl}cyclopropyl)piperidin-1-yl]-5-(trifluoromethyl)pyridinium trifluoroacetate]"
5,< 10,"O=C(NC1CC1)c1ccc(OCC[C@H]2C[C@@H]2C2CCN(c3ncc(Cl)cn3)CC2)cc1F [Ex 93, 4-(2-{(1R,2R)-2-[1-(5-chloropyrimidin-2-yl)piperidin-4-yl]cyclopropyl}ethoxy)-N-cyclopropyl-2-fluorobenzamide]"
6,< 10,"Cc1nnc(-c2ccc(OCC[C@H]3C[C@H]3C3CCN(c4ncc(Cl)c(C)n4)CC3)cc2F)o1 (racemic) [Ex 87, Rac-cis-5-chloro-2-[4-(2-{2-[3-fluoro-4-(5-methyl-1,3,4-oxadiazol-2-yl)phenoxy]ethyl}cyclopropyl)piperidin-1-yl]-4-methylpyrimidine]"
7,< 10,"Cc1nnc(-c2ccc(OCC[C@H]3C[C@H]3C3CCN(c4ncc(F)cn4)CC3)cc2F)o1 (racemic) [Ex 86, Rac-cis-5-fluoro-2-[4-(2-{2-[3-fluoro-4-(5-methyl-1,3,4-oxadiazol-2-yl)phenoxy]ethyl}cyclopropyl)piperidin-1-yl]pyrimidine]"
8,10 to 50,"O=C(NC1CC1)c1ccc(OC[C@@H]2C[C@H]2CC2CCN(c3ncc(Cl)cn3)CC2)cc1F [Ex 107, 4-[((1R,2R)-2-{[1-(5-chloropyrimidin-2-yl)piperidin-4-yl]methyl}cyclopropyl)methoxy]-N-cyclopropyl-2-fluorobenzamide]"
9,50 to 200,"NS(=O)(=O)c1ccc(OC[C@H]2C[C@@H]2CC2CCN(c3ncc(Cl)cn3)CC2)cc1 [Ex 112, 4-[((1S,2S)-2-{[1-(5-chloropyrimidin-2-yl)piperidin-4-yl]methyl}cyclopropyl)methoxy]benzenesulfonamide]"

# More lines, now with the values behind:
row,Compound,EC50 [nM]
1,"Clc1cnc(N2CCC(C3CC3CCOc3ccc(-n4cccn4)cc3)CC2)nc1 (racemic) [Ex 24, rac cis-5-chloro-2-[4-(2-{2-[4-(1H-pyrazol-1-yl)phenoxy]ethyl}cyclopropyl)piperidin-1-yl]pyrimidine]",50 to 200
2,"Cc1nnc(-c2ccc(OCCC3CC3C3CCN(c4ncc(Cl)cn4)CC3)cc2F)o1 (racemic) [Ex 32, rac cis-5-chloro-2-[4-(2-{2-[3-fluoro-4-(5-methyl-1,3,4-oxadiazol-2-yl)phenoxy]ethyl}cyclopropyl)piperidin-1-yl]pyrimidine]",< 10
3,"CS(=O)(=O)c1ccc(OCCC2CC2C2CCN(c3ncc(Cl)cn3)CC2)cc1 (racemic) [Ex 6, rac cis-5-chloro-2-[4-(2-{2-[4-(methylsulfonyl)phenoxy]ethyl}cyclopropyl)piperidin-1-yl]pyrimidine]",< 10
4,"Cc1cnc(N2CCC(C3CC3CCOc3cc(C#N)nc(C)n3)CC2)nc1 (single isomer, unassigned) [Ex 39, Chiral-cis-2-methyl-6-(2-{2-[1-(5-methylpyrimidin-2-yl)piperidin-4-yl]cyclopropyl}ethoxy)pyrimidine-4-carbonitrile]",< 10
5,"CS(=O)(=O)c1cccc(OCCC2CC2C2CCN(c3ncc(Cl)cn3)CC2)c1 (racemic) [Ex 7, rac cis-5-chloro-2-[4-(2-{2-[3-(methylsulfonyl)phenoxy]ethyl}cyclopropyl)piperidin-1-yl]pyrimidine]",< 10
6,"Clc1cnc(N2CCC(C3CC3CCOc3ccc(-n4ccnn4)cc3)CC2)nc1 (racemic) [Ex 27, rac cis-5-chloro-2-[4-(2-{2-[4-(1H-1,2,3-triazol-1-yl)phenoxy]ethyl}cyclopropyl)piperidin-1-yl]pyrimidine]",< 10
7,"Cc1nc(C#N)cc(OCC[C@@H]2C[C@@H]2C2CCN(c3ccc(Cl)cn3)CC2)n1 (racemic) [Ex 43, Rac-cis-6-(2-{2-[1-(5-chloropyridin-2-yl)piperidin-4-yl]cyclopropyl}ethoxy)-2-methylpyrimidine-4-carbonitrile]",< 10
8,"Cc1cnc(N2CCC([C@H]3C[C@H]3CCOc3cc(C)nc(C)n3)CC2)nc1 (racemic) [Ex 41, Rac-cis-2,4-dimethyl-6-(2-{2-[1-(5-methylpyrimidin-2-yl)piperidin-4-yl]cyclopropyl}ethoxy)pyrimidine]",10 to 50
9,"Clc1cnc(N2CCC(C3CC3CCOc3cccc(-n4cncn4)c3)CC2)nc1 (racemic) [Ex 9, rac cis-5-chloro-2-[4-(2-{2-[3-(1H-1,2,4-triazol-1-yl)phenoxy]ethyl}cyclopropyl)piperidin-1-yl]pyrimidine]",50 to 200
10,"Clc1cnc(N2CCC(C3CC3CCOc3ccc(-c4ccno4)cc3)CC2)nc1 (racemic) [Ex 21, rac cis-5-chloro-2-(4-{2-[2-(4-isoxazol-5-ylphenoxy)ethyl]cyclopropyl}piperidin-1-yl)pyrimidine]",10 to 50
11,"Cc1nnc(-c2ccc(OCCC3CC3C3CCN(c4ncc(F)cn4)CC3)cc2F)o1 (single isomer, unassigned) [Ex 83eF, cis-5-fluoro-2-[4-(2-{2-[3-fluoro-4-(5-methyl-1,3,4-oxadiazol-2-yl)phenoxy]ethyl}cyclopropyl)piperidin-1-yl]pyrimidine]",50 to 200
12,"Cc1nc(C#N)cc(OCC[C@@H]2C[C@@H]2C2CCN(c3ncc(F)c(C)n3)CC2)n1 (racemic) [Ex 46, Rac-cis-6-(2-{2-[1-(5-fluoro-4-methylpyrimidin-2-yl)piperidin-4-yl]cyclopropyl}ethoxy)-2-methylpyrimidine-4-carbonitrile]",< 10
13,"O=C(NC1CC1)c1ccc(OCCC2CC2C2CCN(c3ncc(Cl)cn3)CC2)cc1F (racemic) [Ex 11, rac cis-4-(2-{2-[1-(5-chloropyrimidin-2-yl)piperidin-4-yl]cyclopropyl}ethoxy)-N-cyclopropyl-2-fluorobenzamide]",< 10
14,"Cc1cc(OCC[C@@H]2C[C@@H]2C2CCN(c3ncc(Cl)cn3)CC2)nc(C#N)n1 (racemic) [Ex 52, Rac-cis-4-(2-{2-[1-(5-chloropyrimidin-2-yl)piperidin-4-yl]cyclopropyl}ethoxy)-6-methylpyrimidine-2-carbonitrile]",< 10
15,"Clc1cnc(N2CCC(C3CC3CCOc3ccc(-c4cn[nH]c4)cc3)CC2)nc1 (racemic) [Ex 23, rac cis-5-chloro-2-[4-(2-{2-[4-(1H-pyrazol-4-yl)phenoxy]ethyl}cyclopropyl)piperidin-1-yl]pyrimidine]",50 to 200
16,"Fc1cc(OCCC2CC2C2CCN(c3ncc(Cl)cn3)CC2)ccc1-n1cnnn1 (racemic) [Ex 30b, rac cis-5-chloro-2-[4-(2-{2-[3-fluoro-4-(1H-tetrazol-1-yl)phenoxy]ethyl}cyclopropyl)piperidin-1-yl]pyrimidine]",< 10
17,"Clc1cnc(N2CCC(C3CC3CCOc3ccc(-c4cnoc4)cc3)CC2)nc1 (racemic) [Ex 20, rac cis-5-chloro-2-(4-{2-[2-(4-isoxazol-4-ylphenoxy)ethyl]cyclopropyl)piperidin-1-yl)pyrimidine]",50 to 200
18,"Cc1nc(C#N)cc(OCCC2CC2C2CCN(c3ncc(Cl)cn3)CC2)n1 (single isomer, unassigned) [Ex 34, Chiral-cis-6-(2-{2-[1-(5-chloropyrimidin-2-yl)piperidin-4-yl]cyclopropyl}ethoxy)-2-methylpyrimidine-4-carbonitrile]",< 10
19,"Clc1cnc(N2CCC(C3CC3CCOc3ccc(-c4cocn4)cc3)CC2)nc1 (racemic) [Ex 19, rac cis-5-chloro-2-[4-(2-{2-[4-(1,3-oxazol-4-yl)phenoxy]ethyl}cyclopropyl)piperidin-1-yl]pyrimidine]",10 to 50
